Laboratory results published in patent US11395490B2, “Herbicidal composition” (SYNGENTA CROP PROTECTION, LLC, priority 2005, dated 2022).

Legend:
Format in all cases: in vivo
Conditions in all cases: 21 days after treatment
Sorghum vulgare (SORVU) = assay: Post-emergence test, Sorghum vulgare
Excerpt: (§1) The herbicidal action to be expected, We, for a given combination of two herbicides can be calculated as follows (see COLBY, S. R. “Calculating synergistic and antagonistic response of herbicide combinations”. Weeds 15, pages 20-22; 1967): We=X+[Y·(100−X)/100] wherein: X=% herbicidal action in the case of treatment with active ingredient (A) using an application rate of p kg per hectare, in comparison with untreated control (=0%). Y=% herbicidal action in the case of treatment with active ingredient (B) using an application rate of q kg per hectare, in comparison with untreated control. We=expected herbicidal action (% herbicidal action in comparison with untreated control) after treatment with active ingredient (A) and active ingredient (B) at a rate of application of p+q kg of active ingredient per hectare. If the action actually observed is greater than the expected value We, there is a synergistic effect. Trial Description, Pre-Emergence Test: Monocotyledonous and dicotyledonous test plants are sown in standard soil in plastics pots. The plants tested were: Maize (ZEAMX), Ipomea purpurea (PHBPU), Euphorbia heterophylla (EPHHL), Panicum millenacearum (PANMI). Immediately after sowing, the test compounds in aqueous suspension are applied by spraying (200 litres of water/ha). (A) was formulated as a SC50, and (B1), (B2) and (B3) were formulated as WP25; 1% adjuvant crop oil concentrate (Agridex) (v/v) was added to all treatments. The compounds were applied alone and in combination as tank mixtures. The rates of application depend on the optimum concentrations determined under field conditions and greenhouse conditions. The test plants are then cultivated in a greenhouse under optimum conditions. Evaluation of the tests is made after 21 days (% action, 100%=plants have died, 0%=no phytotoxic action).
(§2) Trial Description Post-Emergence Test: The test plants are raised in plastics pots under greenhouse conditions as far as the 2- to 3-leaf stage. A standard soil is used as the cultivation substrate. The plants tested were: Maize (ZEAMX), Ipomea purpurea (PHBPU), Sorghum vulgare (SORVU), Euphorbia heterophylla (EPHHL), Panicum millenacearum (PANMI). At the 2- to 3-leaf stage, the herbicides are applied individually and as mixtures to the test plants. The test compounds are applied in the form of an aqueous suspension in 200 litres of water/ha. (A) was formulated as a SC50, and (B1), (B2) and (B3) were formulated as WP25; 1% adjuvant crop oil concentrate (Agridex) (v/v) was added to all treatments. The compounds were applied alone and in combination as tank mixtures. The rates of application depend on the optimum concentrations determined under field conditions and greenhouse conditions. Evaluation of the tests is made after 21 days (% action, 100%=plants have died, 0%=no phytotoxic action).

[1] = system: Euphorbia heterophylla (EPHHL); assay: Post-emergence test, Euphorbia heterophylla
Excerpt: as §1, §2

Maize (ZEAMX) [2] = assay: Post-emergence test, Maize
Excerpt: as §1, §2

Ipomea purpurea (PHBPU) [3] = assay: Post-emergence test, Ipomea purpurea
Excerpt: as §1, §2

Maize (ZEAMX) [4] = assay: Pre-emergence test, Maize
Excerpt: as §1

[5] = system: Panicum millenacearum (PANMI); assay: Pre-emergence test, Panicum millenacearum
Excerpt: as §1

[6] = system: Euphorbia heterophylla (EPHHL); assay: Pre-emergence test, Euphorbia heterophylla
Excerpt: as §1

Ipomea purpurea (PHBPU) [7] = assay: Pre-emergence test, Ipomea purpurea
Excerpt: as §1

[8] = system: Panicum millenacearum (PANMI); assay: Post-emergence test, Panicum millenacearum
Excerpt: as §1, §2

## Cn1nc(C(F)(F)F)c(CS(=O)(=O)C2=NOC(C)(C)C2)c1OC(F)F [(A), 3-[[[5-(difluoromethoxy)-1-methyl-3-(trifluoromethyl)-1H-pyrazol-4-yl]methyl]-sulfonyl]-4,5-dihydro-5,5-dimethyl-isoxazole]
Sorghum vulgare (SORVU); rate 12.5 g/ha
  Observed plant damage SORVU: 0%
Sorghum vulgare (SORVU); rate 25 g/ha
  Observed plant damage SORVU: 0%
Sorghum vulgare (SORVU); rate 50 g/ha
  Observed plant damage SORVU: 0%
Sorghum vulgare (SORVU); rate 100 g/ha
  Observed plant damage SORVU: 0%
Sorghum vulgare (SORVU); rate 200 g/ha
  Observed plant damage SORVU: 0%
[1]; rate 12.5 g/ha
  Observed plant damage EPHHL: 0%
[1]; rate 25 g/ha
  Observed plant damage EPHHL: 0%
[1]; rate 50 g/ha
  Observed plant damage EPHHL: 15%
[1]; rate 100 g/ha
  Observed plant damage EPHHL: 35%
[1]; rate 200 g/ha
  Observed plant damage EPHHL: 40%
Maize (ZEAMX) [2]; rate 12.5 g/ha
  Observed plant damage ZEAMX: 0%
Maize (ZEAMX) [2]; rate 25 g/ha
  Observed plant damage ZEAMX: 0%
Maize (ZEAMX) [2]; rate 50 g/ha
  Observed plant damage ZEAMX: 0%
Maize (ZEAMX) [2]; rate 100 g/ha
  Observed plant damage ZEAMX: 0%
Maize (ZEAMX) [2]; rate 200 g/ha
  Observed plant damage ZEAMX: 0%
Ipomea purpurea (PHBPU) [3]; rate 12.5 g/ha
  Observed plant damage PHBPU: 0%
Ipomea purpurea (PHBPU) [3]; rate 25 g/ha
  Observed plant damage PHBPU: 20%
Ipomea purpurea (PHBPU) [3]; rate 50 g/ha
  Observed plant damage PHBPU: 20%
Ipomea purpurea (PHBPU) [3]; rate 100 g/ha
  Observed plant damage PHBPU: 75%
Ipomea purpurea (PHBPU) [3]; rate 200 g/ha
  Observed plant damage PHBPU: 85%
Maize (ZEAMX) [4]; rate 12.5 g/ha
  Observed plant damage ZEAMX: 0%
Maize (ZEAMX) [4]; rate 25 g/ha
  Observed plant damage ZEAMX: 0%
Maize (ZEAMX) [4]; rate 50 g/ha
  Observed plant damage ZEAMX: 0%
Maize (ZEAMX) [4]; rate 100 g/ha
  Observed plant damage ZEAMX: 0%
Maize (ZEAMX) [4]; rate 200 g/ha
  Observed plant damage ZEAMX: 0%
[5]; rate 12.5 g/ha
  Observed plant damage PANMI: 0%
[5]; rate 25 g/ha
  Observed plant damage PANMI: 0%
[5]; rate 50 g/ha
  Observed plant damage PANMI: 70%
[5]; rate 100 g/ha
  Observed plant damage PANMI: 100%
[5]; rate 200 g/ha
  Observed plant damage PANMI: 100%
[6]; rate 12.5 g/ha
  Observed plant damage EPHHL: 0%
[6]; rate 25 g/ha
  Observed plant damage EPHHL: 0%
[6]; rate 50 g/ha
  Observed plant damage EPHHL: 15%
[6]; rate 100 g/ha
  Observed plant damage EPHHL: 40%
[6]; rate 200 g/ha
  Observed plant damage EPHHL: 75%
Ipomea purpurea (PHBPU) [7]; rate 12.5 g/ha
  Observed plant damage PHBPU: 0%
Ipomea purpurea (PHBPU) [7]; rate 25 g/ha
  Observed plant damage PHBPU: 0%
Ipomea purpurea (PHBPU) [7]; rate 50 g/ha
  Observed plant damage PHBPU: 0%
Ipomea purpurea (PHBPU) [7]; rate 100 g/ha
  Observed plant damage PHBPU: 75%
Ipomea purpurea (PHBPU) [7]; rate 200 g/ha
  Observed plant damage PHBPU: 95%
[8]; rate 12.5 g/ha
  Observed plant damage PANMI: 0%
[8]; rate 25 g/ha
  Observed plant damage PANMI: 35%
[8]; rate 50 g/ha
  Observed plant damage PANMI: 65%
[8]; rate 100 g/ha
  Observed plant damage PANMI: 65%
[8]; rate 200 g/ha
  Observed plant damage PANMI: 75%

## COCCOCc1nc(C(F)(F)F)ccc1C(=O)C1C(=O)C2CCC(C2)C1=O (stereo not drawn) [(B1), 4-hydroxy-3-[[2-[(2-methoxyethoxy)methyl]-6-(trifluoromethyl)-3-pyridinyl]carbonyl]-bicyclo[3.2.1]oct-3-en-2-one]
Sorghum vulgare (SORVU); rate 18.75 g/ha
  Observed plant damage SORVU: 0%
Sorghum vulgare (SORVU); rate 37.5 g/ha
  Observed plant damage SORVU: 0%
Sorghum vulgare (SORVU); rate 75 g/ha
  Observed plant damage SORVU: 0%
Sorghum vulgare (SORVU); rate 150 g/ha
  Observed plant damage SORVU: 10%
Sorghum vulgare (SORVU); rate 300 g/ha
  Observed plant damage SORVU: 35%
[1]; rate 18.75 g/ha
  Observed plant damage EPHHL: 65%
[1]; rate 37.5 g/ha
  Observed plant damage EPHHL: 80%
[1]; rate 75 g/ha
  Observed plant damage EPHHL: 90%
[1]; rate 150 g/ha
  Observed plant damage EPHHL: 90%
[1]; rate 300 g/ha
  Observed plant damage EPHHL: 98%
Maize (ZEAMX) [2]; rate 18.75 g/ha
  Observed plant damage ZEAMX: 0%
Maize (ZEAMX) [2]; rate 37.5 g/ha
  Observed plant damage ZEAMX: 0%
Maize (ZEAMX) [2]; rate 75 g/ha
  Observed plant damage ZEAMX: 0%
Maize (ZEAMX) [2]; rate 150 g/ha
  Observed plant damage ZEAMX: 0%
Maize (ZEAMX) [2]; rate 300 g/ha
  Observed plant damage ZEAMX: 0%
Ipomea purpurea (PHBPU) [3]; rate 18.75 g/ha
  Observed plant damage PHBPU: 30%
Ipomea purpurea (PHBPU) [3]; rate 37.5 g/ha
  Observed plant damage PHBPU: 50%
Ipomea purpurea (PHBPU) [3]; rate 75 g/ha
  Observed plant damage PHBPU: 55%
Ipomea purpurea (PHBPU) [3]; rate 150 g/ha
  Observed plant damage PHBPU: 70%
Ipomea purpurea (PHBPU) [3]; rate 300 g/ha
  Observed plant damage PHBPU: 70%
Maize (ZEAMX) [4]; rate 18.75 g/ha
  Observed plant damage ZEAMX: 0%
Maize (ZEAMX) [4]; rate 37.5 g/ha
  Observed plant damage ZEAMX: 0%
Maize (ZEAMX) [4]; rate 75 g/ha
  Observed plant damage ZEAMX: 0%
Maize (ZEAMX) [4]; rate 150 g/ha
  Observed plant damage ZEAMX: 0%
Maize (ZEAMX) [4]; rate 300 g/ha
  Observed plant damage ZEAMX: 0%
[5]; rate 18.75 g/ha
  Observed plant damage PANMI: 15%
[5]; rate 37.5 g/ha
  Observed plant damage PANMI: 65%
[5]; rate 75 g/ha
  Observed plant damage PANMI: 80%
[5]; rate 150 g/ha
  Observed plant damage PANMI: 100%
[5]; rate 300 g/ha
  Observed plant damage PANMI: 100%
[6]; rate 18.75 g/ha
  Observed plant damage EPHHL: 0%
[6]; rate 37.5 g/ha
  Observed plant damage EPHHL: 0%
[6]; rate 75 g/ha
  Observed plant damage EPHHL: 75%
[6]; rate 150 g/ha
  Observed plant damage EPHHL: 75%
[6]; rate 300 g/ha
  Observed plant damage EPHHL: 100%
Ipomea purpurea (PHBPU) [7]; rate 18.75 g/ha
  Observed plant damage PHBPU: 0%
Ipomea purpurea (PHBPU) [7]; rate 37.5 g/ha
  Observed plant damage PHBPU: 0%
Ipomea purpurea (PHBPU) [7]; rate 75 g/ha
  Observed plant damage PHBPU: 0%
Ipomea purpurea (PHBPU) [7]; rate 150 g/ha
  Observed plant damage PHBPU: 0%
Ipomea purpurea (PHBPU) [7]; rate 300 g/ha
  Observed plant damage PHBPU: 85%
[8]; rate 18.75 g/ha
  Observed plant damage PANMI: 60%
[8]; rate 37.5 g/ha
  Observed plant damage PANMI: 70%
[8]; rate 75 g/ha
  Observed plant damage PANMI: 75%
[8]; rate 150 g/ha
  Observed plant damage PANMI: 70%
[8]; rate 300 g/ha
  Observed plant damage PANMI: 90%
